Laboratory results taken from patent publication US20180303809A1, “TREATMENT OF BURN PAIN BY TRPV1 MODULATORS” (Purdue Pharma L.P., priority 2013, published 2018).
“And” between values parts separate entries of the source, which are not always exact repeats. Identical values can stand only once.

What was measured:
Assay type in all cases: in vivo, rat
[1] = system: male Sprague-Dawley rats; test: Hind limb weight bearing (incapacitance meter, % WL) in thermal burn pain model; conditions: rat burn injury 55° C. 24 s
Description: (§1) Test Animals: Each experiment used male Sprague-Dawley rats weighing between 190-260 g at the time of thermal burn injury. The rats were housed two per cage, and were allowed to acclimate to their environment for at least six days before testing began. The rats had free access to food and water at all times, except during testing and prior to oral (PO) administration of a test compound, when food was removed about 16 hours before dosing. The rats were divided into treatment groups, and one of the following compounds was administered to each group at the dose and by the route of administration indicated in Tables 5.2A to 5.2C, 5.3A and 5.3B, and 5.4A and 5.4B: ketorolac (Sigma-Aldrich, St. Louis, Mo.), AMG 517 (selective TRPV1 antagonist described in Em. Doherty et al., “Novel vanilloid receptor-1 antagonists:2. Structure-activity relationships of 4-oxopyrimidines leading to the selection of a clinical candidate,” J Med Chem 50:3515-3527 (2007).) (Purdue Pharma L. P., Cranbury, N.J.), indomethacin (Alexis Biochemicals, Farmingdale, N.Y.), gabapentin (Bosche Scientific, New Brunswick, N.J.), or (S)-3-chloro-5-(1,2-dihydroxyethyl)-N-(5-(trifluoromethyl)pyridin-2-yl)-5′,6′-dihydro-[2,4′-bipyridine]-1′(2′H)-carboxamide (Compound 1). The control groups were administered the vehicle for the compound of formula (I). The volume of administration for PO treatment was 5 ml/kg, and was the same for all treatment groups. Volume of administration for intraperitoneal (i.p.) drug administration was 2 ml/kg.
(§2) To assess the actions of a compound of formula (I) for the treatment or prevention of burn pain, a model of thermal burn pain was used. A thermal burn injury was induced under isofluorane/O2 inhalation anesthesia. To assess mechanical hyperalgesia and weight bearing, a thermal injury was produced by immersing the left hind paw into water maintained at 55° C. for 24 seconds. The left hind paw of non-injured control animals was immersed in 22° C. water for 24 seconds. To assess thermal hyperalgesia, a thermal injury was produced by immersing the left hindpaw into water maintained at 50° C. for 48 seconds; the left hind-paw of non-injured control animals was immersed in 22° C. water for 48 seconds. The animals were assessed for response to noxious mechanical stimuli by determining PWT for mechanical hyperalgesia, weight bearing difference between the injured or non-injured side, or response to noxious thermal stimuli by determining PWL for thermal hyperalgesia, all as described below, prior to drug administration (baseline), then again at 1, 3 and 5 hours after induction of burn injury.
A commercially available incapacitance meter was used to determine the weight distribution on the two hind paws of the animal (Linton Incapacitance Tester (Linton Instrumentation, Norfolk, UK)). The weight bearing difference (WBD) between the injured and non-injured hindpaw was measured. The animal was placed in the testing chamber that allows the animal to stand normally, distributing its body weight on the hind limbs for the test. Each hind paw was positioned on a separate pressure sensitive pad, which independently measures the pressure applied by each limb. The device continuously collects data after either a force threshold has been exceeded, or the investigator depresses the start pad. Rats were allowed to acclimate when placed on the apparatus, and when they were stationary, the force exerted was then continuously monitored for 3 s. The endpoint was the amount of pressure applied to each limb over time. Three readings were taken for each rat at each time point, and the average used for data analysis. WBD was expressed as “% WL”, i.e. the percentage of weight borne on the burn-injured left hind paw, using the following formula: […]
where WLP is the weight on the left hind paw and WRP is the weight on the right (untreated) hind paw. The 50% value of % WL corresponds to an equal weight distribution across both hind paws. […]

[2] = system: male Sprague-Dawley rats; test: Paw pressure assay, mechanical hyperalgesia (PWT) in thermal burn pain model; conditions: rat burn injury 55° C. 24 s
Description: as §1, §2
The paw pressure assay was used to assess mechanical hyperalgesia. For this assay, hind paw withdrawal thresholds (PWT) to a noxious mechanical stimulus were determined using an analgesimeter (Model 7200, commercially available from Ugo Basile of Italy) as described in C. Stein, “Unilateral Inflammation of the Hindpaw in Rats as a Model of Prolonged Noxious Stimulation: Alterations in Behavior and Nociceptive Thresholds,” Pharmacol. Biochem. and Behavior 31:451-455 (1988). The rat's paw was placed on a small platform, and weight was applied in a graded manner up to a maximum of 250 grams. The endpoint was taken as the weight at which the paw was completely withdrawn. PWT was determined once for each rat at each time point, wherein the affected (ipsilateral; same side as the injury) rear paw was tested. […] All drug treatment groups were compared to the vehicle control group (i.e. injured, administered only the vehicle).

[3] = system: male Sprague-Dawley rats; test: Plantar test, thermal hyperalgesia (PWL) in thermal burn pain model; conditions: rat burn injury 50° C. 48 s, 30 mg/kg PO
Description: as §1, §2
The plantar test was used to assess thermal hyperalgesia. For this test, hind paw withdrawal latencies (PWL) to a noxious thermal stimulus were determined using a plantar test apparatus (commercially available from Ugo Basile of Italy) following the technique described by K. Hargreaves et al., “A New and Sensitive Method for Measuring Thermal Nociception in Cutaneous Hyperalgesia,” Pain 32(1):77-88 (1988). The maximum exposure time was set at 32 seconds to avoid tissue damage and any directed paw withdrawal from the heat source is taken as the end point. Three latencies were determined at each time point and averaged.

[4] = 3 mg/kg IP, 1 h after administration
[5] = 3 mg/kg IP, 3 h after administration
[6] = 3 mg/kg IP, 5 h after administration
[7] = 10 mg/kg IP, 1 h after administration
[8] = 10 mg/kg IP, 3 h after administration
[9] = 10 mg/kg IP, 5 h after administration
[10] = 30 mg/kg IP, 1 h after administration
[11] = 30 mg/kg IP, 3 h after administration
[12] = 30 mg/kg IP, 5 h after administration
[13] = 100 mg/kg IP in 0.9% NaCl, 1 h after administration, 100 mg/kg
[14] = 100 mg/kg IP in 0.9% NaCl, 5 h after administration, 100 mg/kg
[15] = 30 mg/kg PO, 1 h after administration
[16] = 30 mg/kg PO, 3 h after administration
[17] = 30 mg/kg PO, 5 h after administration
[18] = 30 mg/kg PO, baseline (prior to drug administration)

SMILES: NCC1(CC(=O)O)CCCCC1 [Gabapentin, gabapentin]
- % WL (mean ± S.E.M.), percentage of weight borne on the burn-injured left hind paw ([1]; 100 mg/kg IP in NaCl, 1 h after administration): 33.6 ± 3.09 %
- % WL (mean ± S.E.M.), percentage of weight borne on the burn-injured left hind paw ([1]; 100 mg/kg IP in NaCl, 3 h after administration): 44.8 ± 2.58%
- % WL (mean ± S.E.M.), percentage of weight borne on the burn-injured left hind paw ([1]; 100 mg/kg IP in NaCl, 5 h after administration): 44.0 ± 2.24%
- % WL (mean ± S.E.M.), percentage of weight borne on the burn-injured left hind paw ([1]; 100 mg/kg IP in NaCl, baseline (prior to drug administration)): 51.1 ± 0.57%
- % Decrease from Baseline (mean ± S.E.M.) of Paw Withdrawal Threshold [2, 4]: 61 ± 2.1%
- Paw Withdrawal Threshold (g) (mean ± S.E.M.) [2, 4]: 90 ± 4.1 g
- % Decrease from Baseline (mean ± S.E.M.) of Paw Withdrawal Threshold [2, 5]: 55 ± 3.7%
- Paw Withdrawal Threshold (g) (mean ± S.E.M.) [2, 5]: 102 ± 7.4 g
- % Decrease from Baseline (mean ± S.E.M.) of Paw Withdrawal Threshold [2, 6]: 65 ± 3.0%
- Paw Withdrawal Threshold (g) (mean ± S.E.M.) [2, 6]: 81 ± 6.5 g
- Paw Withdrawal Threshold (g) (mean ± S.E.M.) ([2]; 3 mg/kg IP, baseline (prior to drug administration)): 232 ± 10.0 g
- % Decrease from Baseline (mean ± S.E.M.) of Paw Withdrawal Threshold [2, 7]: 47 ± 3.9%
- Paw Withdrawal Threshold (g) (mean ± S.E.M.) [2, 7]: 122 ± 9.1 g
- % Decrease from Baseline (mean ± S.E.M.) of Paw Withdrawal Threshold [2, 8]: 43 ± 3.7%
- Paw Withdrawal Threshold (g) (mean ± S.E.M.) [2, 8]: 130 ± 8.2 g
- % Decrease from Baseline (mean ± S.E.M.) of Paw Withdrawal Threshold [2, 9]: 57 ± 3.2%
- Paw Withdrawal Threshold (g) (mean ± S.E.M.) [2, 9]: 100 ± 8.7 g
- Paw Withdrawal Threshold (g) (mean ± S.E.M.) ([2]; 10 mg/kg IP, baseline (prior to drug administration)): 231 ± 9.7 g
- % Decrease from Baseline (mean ± S.E.M.) of Paw Withdrawal Threshold [2, 10]: 40 ± 2.0 %
- Paw Withdrawal Threshold (g) (mean ± S.E.M.) [2, 10]: 144 ± 7.2 g
- % Decrease from Baseline (mean ± S.E.M.) of Paw Withdrawal Threshold [2, 11]: 27 ± 5.1 %
- Paw Withdrawal Threshold (g) (mean ± S.E.M.) [2, 11]: 174 ± 14.8 g
- % Decrease from Baseline (mean ± S.E.M.) of Paw Withdrawal Threshold [2, 12]: 56 ± 4.0^ %
- Paw Withdrawal Threshold (g) (mean ± S.E.M.) [2, 12]: 105 ± 11.2 g
- Paw Withdrawal Threshold (g) (mean ± S.E.M.) ([2]; 30 mg/kg IP, baseline (prior to drug administration)): 237 ± 7.9 g
- % Decrease from Baseline (mean ± S.E.M.) of Paw Withdrawal Threshold [2, 13]: 37 ± 5.3 % and 23 ± 6.6 % and 41 ± 3.6 %
- Paw Withdrawal Threshold (g) (mean ± S.E.M.) [2, 13]: 152 ± 14.1 g and 180 ± 13.7 g and 145 ± 9.8 g
- % Decrease from Baseline (mean ± S.E.M.) of Paw Withdrawal Threshold [2, 14]: 53 ± 6.0^ % and 55 ± 4.6^ % and 56 ± 2.2^ %
- Paw Withdrawal Threshold (g) (mean ± S.E.M.) [2, 14]: 112 ± 12.4^ g and 105 ± 9.5 g and 108 ± 5.8^ g
- Paw Withdrawal Threshold (g) (mean ± S.E.M.) ([2]; 100 mg/kg IP in 0.9% NaCl, baseline (prior to drug administration), 100 mg/kg): 239 ± 7.7 g and 237 ± 7.8 g and 246 ± 4.5^ g

SMILES: CC(=O)Nc1nc2c(Oc3cc(-c4ccc(C(F)(F)F)cc4)ncn3)cccc2s1 [AMG 517]
- % WL (mean ± S.E.M.), percentage of weight borne on the burn-injured left hind paw [1, 15]: 39.2 ± 4.30 %
- % WL (mean ± S.E.M.), percentage of weight borne on the burn-injured left hind paw [1, 16]: 43.1 ± 2.82%
- % WL (mean ± S.E.M.), percentage of weight borne on the burn-injured left hind paw [1, 17]: 43.0 ± 3.37%
- % WL (mean ± S.E.M.), percentage of weight borne on the burn-injured left hind paw [1, 18]: 49.4 ± 0.44%
- % Decrease from Baseline (mean ± S.E.M.) of Paw Withdrawal Threshold [2, 15]: 61 ± 2.3%
- Paw Withdrawal Threshold (g) (mean ± S.E.M.) [2, 15]: 94 ± 5.3 g
- % Decrease from Baseline (mean ± S.E.M.) of Paw Withdrawal Threshold [2, 16]: 52 ± 4.3%
- Paw Withdrawal Threshold (g) (mean ± S.E.M.) [2, 16]: 115 ± 10.8 g
- % Decrease from Baseline (mean ± S.E.M.) of Paw Withdrawal Threshold [2, 17]: 65 ± 2.9%
- Paw Withdrawal Threshold (g) (mean ± S.E.M.) [2, 17]: 86 ± 7.7 g
- Paw Withdrawal Threshold (g) (mean ± S.E.M.) [2, 18]: 242 ± 6.0 g
- % Change from Baseline (mean ± S.E.M.) of Paw Withdrawal Latency ([3]; 1 h after administration): −50.1 ± 25.49%
- Paw Withdrawal Latency (sec) (mean ± S.E.M.) ([3]; 1 h after administration): 8.6 ± 0.91 s
- % Change from Baseline (mean ± S.E.M.) of Paw Withdrawal Latency ([3]; 3 h after administration): −27.1 ± 16.54%
- Paw Withdrawal Latency (sec) (mean ± S.E.M.) ([3]; 3 h after administration): 11.8 ± 0.66 s
- % Change from Baseline (mean ± S.E.M.) of Paw Withdrawal Latency ([3]; 5 h after administration): −24.8 ± 15.95%
- Paw Withdrawal Latency (sec) (mean ± S.E.M.) ([3]; 5 h after administration): 12.1 ± 0.60 s
- Paw Withdrawal Latency (sec) (mean ± S.E.M.) ([3]; baseline (prior to drug administration)): 14.4 ± 1.35 s
